Source: ChEMBL document CHEMBL1201862, “PubChem BioAssay data set” (2004)
Active and inactive are the calls of the source.

Legend:
[1] = luciferase reporter signal suppression in cells – H4 neuroglioma cells, luminescence, dose response (AID 1990); type: functional, cell-based
[2] = tested on: HEK293; assay: inhibition of NOD1-driven NF-kB reporter – cell-based, luminescence, uHTS, primary screen (AID 1578); type: functional; settings: Homo sapiens
[3] = tested on: HEK293; assay: cells; type: functional, cell-based; settings: Homo sapiens
[4] = Luminescence Cell-Based Dose Response HTS to Identify Inhibitors of 5'UTR Stem-Loop Driven Prion Protein mRNA Translation in H4 Neuroglioblastoma Cells. [Related pubchem assays: 1827 (Project Summary), 1813 (Primary HTS)]; type: functional
[5] = alpha-synuclein stem-loop luciferase translation blockers – H4 neuroglioma cells, luminescence, confirmation (AID 1988); type: functional, cell-based
[6] = tested on: HEK293; assay: cells; type: functional, cell-based; settings: Homo sapiens; remark: listed apart in the source
[7] = molecular target: Nucleotide-binding oligomerization domain-containing protein 2 (Homo sapiens, UniProt Q9HC29); assay: inhibition of NOD2-driven NF-kB reporter – cell-based, luminescence, uHTS, HEK293 (AID 1566); type: functional
[8] = tested on: HEK293; assay: NOD2 signaling inhibitors in MDP-stimulated cells, cell-based, uHTS, luminescence (AID 2001); type: functional; settings: Homo sapiens
[9] = tested on: HEK293; assay: cells; type: functional, cell-based; settings: Homo sapiens; remark: listed apart in the source
[10] = molecular target: T1, Coagulation factor XII (Homo sapiens, UniProt P00748); type: functional;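 also: activated factor XIIa alpha cleaving a fluorogenic AMC peptide substrate; inhibitor potency from loss of enzyme activity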
T1 sequence (P00748 whole entry): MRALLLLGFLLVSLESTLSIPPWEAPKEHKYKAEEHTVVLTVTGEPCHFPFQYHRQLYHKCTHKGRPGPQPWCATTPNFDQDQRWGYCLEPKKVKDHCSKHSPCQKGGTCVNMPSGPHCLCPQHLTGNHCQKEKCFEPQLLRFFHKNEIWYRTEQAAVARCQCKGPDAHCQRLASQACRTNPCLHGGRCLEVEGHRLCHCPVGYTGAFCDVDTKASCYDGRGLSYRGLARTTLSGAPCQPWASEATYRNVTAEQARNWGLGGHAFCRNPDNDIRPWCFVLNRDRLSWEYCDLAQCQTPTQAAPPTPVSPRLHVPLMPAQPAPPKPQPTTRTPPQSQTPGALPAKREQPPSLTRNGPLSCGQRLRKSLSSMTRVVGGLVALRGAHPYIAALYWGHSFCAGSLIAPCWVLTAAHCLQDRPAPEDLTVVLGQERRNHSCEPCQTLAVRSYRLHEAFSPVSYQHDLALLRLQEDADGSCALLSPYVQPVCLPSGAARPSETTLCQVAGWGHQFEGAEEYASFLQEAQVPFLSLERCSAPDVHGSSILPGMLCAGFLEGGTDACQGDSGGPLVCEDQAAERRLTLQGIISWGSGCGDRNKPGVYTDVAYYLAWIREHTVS

[11] = molecular target: Troponin, cardiac muscle (Homo sapiens, UniProt P19429+P45379+P63316); assay: Fluorescence-based biochemical high throughput dose response assay for activators of the calcium sensitivity of cardiac Regulated Thin Filaments (RTF). [Related pubchem assays (depositor defined):AID493008, AID493018, AID504382, AID504383]; type: protein-complex assay
[12] = molecular target: Voltage-dependent T-type calcium channel subunit alpha-1H (Homo sapiens, UniProt O95180); type: functional;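 also: channel activity triggered by adding a high calcium stimulation buffer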
[13] = molecular target: Prothrombin (Homo sapiens, UniProt P00734); assay: Thrombin 1536 HTS Dose Response Confirmation. [Related pubchem assays: 1046 (Thrombin 1536 HTS; hits were confirmed in this assay)]; type: functional
[14] = viability of PTEN-deleted HCT116 cells – cell-based, HCT116 PTEN knockout, dose response (AID 1047); type: functional;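 also: HCT116 colon tumor cells with PTEN knocked out; cells exposed to compound for 60 hours before readout; potency for loss of cell viability measured by luminescence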
[15] = viability of HCT116 lacking mutant beta-catenin – cell-based, human colon tumor, dose response (AID 1045); type: functional;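 also: HCT116 colon tumor cells with beta catenin knocked out; cells exposed to compound for 60 hours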
[16] = HEK-293T cell viability reduction – luminescence, B-cell screen hits, cytotoxicity control for BCR NF-kB inhibitor project, dose response (AID 489021); type: functional, cell-based;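 also: HEK-293T cells carrying an NF-kB luciferase reporter; cells exposed to compound for about 14 hours before viability readout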

For `COc1ccccc1C(=O)NCc1ccc(-c2nc3ccccc3s2)cc1`, the EC50 [1] was 15.2 µM (active), the EC50 [2] was 6.77 µM (active) and the IC50 [3] was 1.93 µM (active). For the same molecule, the EC50 [4] was > 120 µM (not active), the EC50 [5] was 0.312 µM (active) and the IC50 [6] was > 20 µM (inactive). The EC50 [7] was 6.29 µM (active), the IC50 [8] was 6.82 µM (inactive) and the IC50 [9] was > 20 µM (inactive).

With `CC12CCC(c3c(C(=O)N4CCOCC4)nn(-c4ccccc4)c31)C2(C)C` (stereo not drawn) the IC50 [10] was > 50 µM (inactive).

For `N=c1n(Cc2ccccc2)c2ccccc2n1CC(O)c1ccco1` (stereo not drawn), the EC50 [11] was > 71.5 µM (inactive).

With `O=C(NC1CCCCC1)C(c1ccccc1)N(Cc1ccc2c(c1)OCO2)C(=O)c1cnsn1` (stereo not drawn) the EC50 [12] was 4.5 µM (active).

In the case of `COc1ccc(-n2ncc3c(NCc4ccccn4)ncnc32)cc1`, the IC50 [10] is reported as > 50 µM (inactive).

With `Cc1ccc(S(=O)(=O)Nc2cccnc2Oc2ccc(Cl)cc2)cc1` the IC50 [13] was > 50 µM (not active) and the IC50 [10] was > 50 µM (inactive).

For `COc1ccc(NC(=O)c2cc3c(Cl)nc4ccccc4c3s2)cc1OC`, the EC50 [14] was 58.6 µM (active), the EC50 [15] was 48.8 µM (active) and the IC50 [16] was > 80 µM (inactive).
